Laboratory results: ChEMBL document CHEMBL5634143, “Development of teixobactin analogues containing hydrophobic, non-proteogenic amino acids that are highly potent against multidrug-resistant bacteria and biofilms” (Eur J Med Chem, 2023)
Converted amounts (≈) assume the structure as drawn. The source made the active and inactive calls. No cut-off for these calls is given here.

Key:
Cell membrane [1] = experiment: Induction of cytoplasmic membrane depolarization in methicilin-resistant Staphylococcus aureus 21455 at 16 times MIC by DiSC3(5) dye-based fluorescence assay
Staphylococcus aureus [2] = experiment: Antibacterial activity against methicilin-resistant Staphylococcus aureus 42412 assessed as inhibition of bacterial growth; type: functional
[3] = system: Staphylococcus epidermidis; experiment: Antibacterial activity against Staphylococcus epidermidis 12228 assessed as inhibition of bacterial growth; type: functional
[4] = system: Staphylococcus saprophyticus; experiment: Antibacterial activity against Staphylococcus saprophyticus ATCC 49453 assessed as inhibition of bacterial growth; type: functional
Enterococcus faecium [5] = experiment: Antibacterial activity against Vancomycin-resistant Enterococcus faecium 1014 assessed as inhibition of bacterial growth; type: functional
Enterococcus faecium [6] = experiment: Antibacterial activity against Vancomycin-resistant Enterococcus […] ATCC 700802 assessed as inhibition of bacterial growth; type: functional
Bacillus cereus = experiment: Antibacterial activity against Bacillus cereus ATCC 11788 assessed as inhibition of bacterial growth; type: functional
Cell membrane [7] = experiment: Induction of cell membrane […] in methicilin-resistant Staphylococcus aureus 21455 assessed as increase in fluorescence intensity at 16 times MIC by SYTOX green dye based fluorescence analysis; type: cell membranes
[8] = system: Staphylococcus saprophyticus; experiment: Antibacterial activity against Staphylococcus saprophyticus ATCC 15305 assessed as inhibition of bacterial growth; type: functional
Cell membrane [9] = experiment: Induction of cell membrane […] in methicilin-resistant Staphylococcus aureus 21455 assessed as increase in fluorescence intensity at 8 times MIC by SYTOX green dye based fluorescence analysis; type: cell membranes
[10] = system: Staphylococcus saprophyticus; experiment: Antibacterial activity against Staphylococcus saprophyticus ATCC BAA 750 assessed as inhibition of bacterial growth; type: functional
[11] = Hemolytic activity in rabbit erythrocytes assessed as hemolysis at 512 microg/ml relative to control; type: toxicity, cell-based, Oryctolagus cuniculus, Erythrocyte; conditions: at 512 µg/mL, read-out: Activity
Enterococcus faecium [12] = experiment: Antibacterial activity against Vancomycin-resistant Enterococcus […] ATCC 29212 assessed as inhibition of bacterial growth; type: functional; conditions: Enterococcus faecalis
Staphylococcus aureus [13] = experiment: Bactericidal activity against methicilin-resistant Staphylococcus aureus 21455 assessed as reduction in bacterial colony forming unit at 16 times MIC observed after 8 hrs by time-kill kinetic assay; type: functional, organism-based
Staphylococcus aureus [14] = experiment: Bactericidal activity against methicilin-resistant Staphylococcus aureus 21455 assessed as reduction in bacterial colony forming unit at 16 times MIC observed after 24 hrs by time-kill kinetic assay; type: functional, organism-based
Staphylococcus aureus [15] = experiment: Antibacterial activity against methicilin-resistant Staphylococcus aureus ATCC 700699 assessed as inhibition of bacterial growth; type: functional
Staphylococcus aureus [16] = experiment: Antibacterial activity against methicilin-resistant Staphylococcus aureus 21455 assessed as inhibition of bacterial growth; type: functional
Staphylococcus aureus [17] = experiment: Bactericidal activity against methicilin-resistant Staphylococcus aureus 21455 assessed as reduction in bacterial growth by measuring minimum bactericidal concentration at 16 times MIC by time-kill kinetic assay; type: functional
Staphylococcus aureus [18] = experiment: Bactericidal activity against methicilin-resistant Staphylococcus aureus 21455 assessed as inhibition of bacterial growth at >=8 times MIC by time-kill kinetic assay; type: functional, organism-based
Staphylococcus aureus [19] = experiment: Antibacterial activity against methicilin-resistant Staphylococcus aureus 1003 assessed as inhibition of bacterial growth; type: functional
[20] = system: Staphylococcus saprophyticus; experiment: Antibacterial activity against Staphylococcus saprophyticus ATCC 49907 assessed as inhibition of bacterial growth; type: functional
Staphylococcus aureus [21] = experiment: Antibacterial activity against Staphylococcus aureus 29213 assessed as inhibition of bacterial growth; type: functional
Cell membrane [22] = experiment: Induction of cytoplasmic membrane depolarization in methicilin-resistant Staphylococcus aureus 21455 at 8 times MIC by DiSC3(5) dye-based fluorescence assay
Staphylococcus aureus [23] = experiment: Antibacterial activity against Staphylococcus aureus 4299 assessed as inhibition of bacterial growth; type: functional
Bacillus subtilis = experiment: Antibacterial activity against Bacillus subtilis ATCC 6633 assessed as inhibition of bacterial growth; type: functional
[24] = system: Staphylococcus epidermidis; experiment: Antibacterial activity against Staphylococcus epidermidis 1457 assessed as inhibition of biofilm formation at 10 ug/ml incubated for 5 hrs by confocal microscopic analysis; type: functional, organism-based; conditions: dose 10.0 µg/ml
Staphylococcus aureus [25] = experiment: Bactericidal activity against methicilin-resistant Staphylococcus aureus 21455 assessed as inhibition of bacterial growth by time-kill kinetic assay; type: functional, organism-based
Staphylococcus aureus [26] = experiment: Antibacterial activity against Staphylococcus aureus 15981 assessed as inhibition of biofilm formation at 10 ug/ml incubated for 5 hrs by confocal microscopic analysis; type: functional, organism-based; conditions: dose 10.0 µg/ml
Staphylococcus aureus [27] = experiment: Bactericidal activity against methicilin-resistant Staphylococcus aureus 21455 assessed as reduction in bacterial growth by measuring minimum bactericidal concentration at 4 times MIC by time-kill kinetic assay; type: functional
Pseudomonas aeruginosa [28] = experiment: Antibacterial activity against Pseudomonas aeruginosa DSMZ 1117 assessed as inhibition of bacterial growth; type: functional
Pseudomonas aeruginosa [29] = experiment: Antibacterial activity against Pseudomonas aeruginosa ATCC 9027 assessed as inhibition of bacterial growth; type: functional

Structure (SMILES): CC[C@H](C)[C@H](NC(=O)[C@@H](Cc1ccccc1)NC)C(=O)N[C@@H](CO)C(=O)N[C@H](CCC(N)=O)C(=O)N[C@@H](C(=O)N[C@H](C(=O)N[C@@H](CO)C(=O)N[C@H]1C(=O)N[C@@H](C)C(=O)N[C@@H](C2CCCCC2)C(=O)N[C@@H]([C@@H](C)CC)C(=O)O[C@H]1C)[C@@H](C)CC)[C@@H](C)CC
- Activity (Cell membrane [1]): inactive
- MIC (Staphylococcus aureus [2]): 0.063 µg/mL (≈ 0.0513 µM)
- MIC [3]: 0.063 µg/mL (≈ 0.0513 µM)
- MIC [4]: < 0.063 µg/mL
- MIC (Enterococcus faecium [5]): 0.25 µg/mL (≈ 0.204 µM)
- MIC (Enterococcus faecium [6]): 0.063 µg/mL (≈ 0.0513 µM)
- MIC (Bacillus cereus): 0.063 µg/mL (≈ 0.0513 µM)
- Activity (Cell membrane [7]): 10.6%
- MIC [8]: < 0.063 µg/mL
- Activity (Cell membrane [9]): 8.8%
- MIC [10]: 0.063 µg/mL (≈ 0.0513 µM)
- hemolysis at 512 microg/ml [11]: ≤ 2%
- MIC (Enterococcus faecium [12]): 0.125 µg/mL (≈ 0.102 µM)
- Activity (Staphylococcus aureus [13]): Active
- Activity (Staphylococcus aureus [14]): Active
- MIC (Staphylococcus aureus [15]): 0.125 µg/mL (≈ 0.102 µM)
- MIC (Staphylococcus aureus [16]): 0.125 µg/mL (≈ 0.102 µM)
- MBC (Staphylococcus aureus [17]): 2 µg/mL (≈ 1.63 µM)
- Activity (Staphylococcus aureus [18]): Active
- MIC (Staphylococcus aureus [19]): 0.063 µg/mL (≈ 0.0513 µM)
- MIC [20]: 0.063 µg/mL (≈ 0.0513 µM)
- MIC (Staphylococcus aureus [21]): 0.063 µg/mL (≈ 0.0513 µM)
- Activity (Cell membrane [22]): inactive
- MIC (Staphylococcus aureus [23]): 0.063 µg/mL (≈ 0.0513 µM)
- MIC (Bacillus subtilis): 0.063 µg/mL (≈ 0.0513 µM)

Structure (SMILES): CCCC[C@@H]1NC(=O)[C@H](C)NC(=O)[C@H](NC(=O)[C@H](CO)NC(=O)[C@@H](NC(=O)[C@H](NC(=O)[C@@H](CCC(N)=O)NC(=O)[C@H](CO)NC(=O)[C@@H](NC(=O)[C@@H](Cc2ccccc2)NC)[C@@H](C)CC)[C@@H](C)CC)[C@@H](C)CC)[C@H](C)OC(=O)[C@H]([C@@H](C)CC)NC1=O
- MIC (Staphylococcus aureus [2]): 0.125 µg/mL (≈ 0.104 µM)
- MIC [3]: 0.063 µg/mL (≈ 0.0524 µM)
- MIC [4]: 0.063 µg/mL (≈ 0.0524 µM)
- MIC (Enterococcus faecium [5]): 1 µg/mL (≈ 0.832 µM)
- MIC (Enterococcus faecium [6]): 0.5 µg/mL (≈ 0.416 µM)
- MIC (Bacillus cereus): 0.063 µg/mL (≈ 0.0524 µM)
- Activity [24]: Active
- Activity (Staphylococcus aureus [25]): Dose-Dependent Effect
- Activity (Staphylococcus aureus [26]): Active
- MIC [8]: 0.063 µg/mL (≈ 0.0524 µM)
- MIC [10]: 0.063 µg/mL (≈ 0.0524 µM)
- hemolysis at 512 microg/ml [11]: ≤ 2%
- MIC (Enterococcus faecium [12]): 1 µg/mL (≈ 0.832 µM)
- MIC (Staphylococcus aureus [15]): 0.5 µg/mL (≈ 0.416 µM)
- MIC (Staphylococcus aureus [16]): 0.25 µg/mL (≈ 0.208 µM)
- MBC (Staphylococcus aureus [27]): 1 µg/mL (≈ 0.832 µM)
- MIC (Staphylococcus aureus [19]): 0.5 µg/mL (≈ 0.416 µM)
- MIC [20]: 0.063 µg/mL (≈ 0.0524 µM)
- MIC (Staphylococcus aureus [21]): 0.063 µg/mL (≈ 0.0524 µM)
- MIC (Staphylococcus aureus [23]): 0.25 µg/mL (≈ 0.208 µM)
- MIC (Bacillus subtilis): 0.063 µg/mL (≈ 0.0524 µM)

Structure (SMILES): CC[C@H](C)[C@H](NC(=O)[C@@H](Cc1ccccc1)NC)C(=O)N[C@@H](CO)C(=O)N[C@H](CCCNC(=N)N)C(=O)N[C@@H](C(=O)N[C@H](C(=O)N[C@@H](CO)C(=O)N[C@H]1C(=O)N[C@@H](C)C(=O)N[C@@H](C2CCCCC2)C(=O)N[C@@H]([C@@H](C)CC)C(=O)O[C@H]1C)[C@@H](C)CC)[C@@H](C)CC
- Activity (Cell membrane [1]): inactive
- MIC (Pseudomonas aeruginosa [28]): > 32 µg/mL
- MIC (Staphylococcus aureus [2]): 0.063 µg/mL (≈ 0.0502 µM)
- MIC [3]: 0.063 µg/mL (≈ 0.0502 µM)
- MIC [4]: < 0.063 µg/mL
- MIC (Enterococcus faecium [5]): 0.063 µg/mL (≈ 0.0502 µM)
- MIC (Enterococcus faecium [6]): 0.063 µg/mL (≈ 0.0502 µM)
- MIC (Bacillus cereus): 0.063 µg/mL (≈ 0.0502 µM)
- Activity (Cell membrane [7]): Active
- Activity [24]: Active
- Activity (Staphylococcus aureus [25]): Dose-Dependent Effect
- Activity (Staphylococcus aureus [26]): Active
- MIC [8]: < 0.063 µg/mL
- Activity (Cell membrane [9]): Active
- MIC [10]: 0.063 µg/mL (≈ 0.0502 µM)
- MIC (Pseudomonas aeruginosa [29]): > 32 µg/mL
- hemolysis at 512 microg/ml [11]: ≤ 2%
- MIC (Enterococcus faecium [12]): 0.063 µg/mL (≈ 0.0502 µM)
- Activity (Staphylococcus aureus [13]): Active
- Activity (Staphylococcus aureus [14]): Active
- MIC (Staphylococcus aureus [15]): 0.063 µg/mL (≈ 0.0502 µM)
- MIC (Staphylococcus aureus [16]): 0.25 µg/mL (≈ 0.199 µM)
- MIC (Staphylococcus aureus [19]): 0.063 µg/mL (≈ 0.0502 µM)
- MIC [20]: 0.063 µg/mL (≈ 0.0502 µM)
- MIC (Staphylococcus aureus [21]): 0.063 µg/mL (≈ 0.0502 µM)
- Activity (Cell membrane [22]): inactive
- MIC (Staphylococcus aureus [23]): 0.063 µg/mL (≈ 0.0502 µM)
- MIC (Bacillus subtilis): 0.063 µg/mL (≈ 0.0502 µM)
